Molecules are shown by their SMILES. Where two headings read alike, the source gives them in different places. Where only a bound is given, the exact number is not on record here.

For 24 compounds, IC50 and EC50 results are on record in patent publication US11634396B2 (priority 2021, dated 2023).

For experiment [1], the target named is kOR (OPRK1) (Homo sapiens (Human), UniProt P41145). As to the kind of experiment: KOR β-Arrestin antagonist assay (Tango OPRK1-bla U2OS cells). The class given is cell-based. An excerpt:
KOR β-Arrestin Agonist and Antagonist assays were preformed using the Tango™ OPRK1-bla U2OS cells from Invitrogen and purchased from ThermoFisher, catalog number K1576.

The target in experiment [2] is human dOR (Homo sapiens (Human), UniProt P41143). The experiment can be described thus: cell-based. The settings on record: dOR cAMP Agonist Assay EC50, CHO Tag-lite human dOR stable cell line; forskolin.
Chain of human dOR (P41143 whole entry): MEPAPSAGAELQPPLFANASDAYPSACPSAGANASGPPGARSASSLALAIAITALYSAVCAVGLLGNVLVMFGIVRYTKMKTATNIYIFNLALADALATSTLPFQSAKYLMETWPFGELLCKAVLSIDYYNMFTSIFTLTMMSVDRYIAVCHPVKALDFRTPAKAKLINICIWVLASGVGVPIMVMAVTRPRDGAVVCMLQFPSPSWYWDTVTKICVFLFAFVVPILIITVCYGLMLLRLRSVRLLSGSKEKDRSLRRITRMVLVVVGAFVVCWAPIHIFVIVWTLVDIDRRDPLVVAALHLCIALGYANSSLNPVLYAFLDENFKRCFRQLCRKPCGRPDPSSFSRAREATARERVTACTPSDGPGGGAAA
The target in experiment [3] is human mOR (Homo sapiens (Human), UniProt P35372). The experiment can be described thus: cell-based.
Chain of human mOR (P35372 whole entry): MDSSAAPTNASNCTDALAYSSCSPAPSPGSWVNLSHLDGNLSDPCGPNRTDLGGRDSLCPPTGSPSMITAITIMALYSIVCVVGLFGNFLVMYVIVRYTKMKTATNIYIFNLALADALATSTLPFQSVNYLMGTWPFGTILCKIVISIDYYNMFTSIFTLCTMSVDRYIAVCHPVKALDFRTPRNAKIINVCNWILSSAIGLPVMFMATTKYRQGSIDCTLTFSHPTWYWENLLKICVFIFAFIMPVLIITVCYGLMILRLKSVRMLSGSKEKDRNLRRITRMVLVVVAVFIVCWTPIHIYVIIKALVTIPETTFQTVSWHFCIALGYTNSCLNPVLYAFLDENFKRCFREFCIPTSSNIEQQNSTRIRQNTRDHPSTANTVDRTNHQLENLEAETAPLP
[4] abbreviates: CHO Tag-lite human mOR stable cell line, forskolin 4 μM and DAMGO at EC90, read-out: mOR cAMP Antagonist Assay IC50.

Chain of kOR (OPRK1) (P41145 whole entry): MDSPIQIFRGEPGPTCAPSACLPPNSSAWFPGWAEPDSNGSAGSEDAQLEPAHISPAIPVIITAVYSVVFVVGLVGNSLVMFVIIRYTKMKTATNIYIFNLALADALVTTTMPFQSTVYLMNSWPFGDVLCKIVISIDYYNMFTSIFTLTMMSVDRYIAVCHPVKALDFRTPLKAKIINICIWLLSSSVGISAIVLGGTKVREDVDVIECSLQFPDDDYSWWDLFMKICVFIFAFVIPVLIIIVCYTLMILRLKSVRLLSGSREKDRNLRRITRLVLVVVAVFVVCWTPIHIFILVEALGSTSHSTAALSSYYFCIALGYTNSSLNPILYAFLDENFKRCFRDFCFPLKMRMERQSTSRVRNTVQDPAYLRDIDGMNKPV

By IC50 is commonly meant the concentration that gives 50% inhibition. By EC50 is commonly meant the midpoint of the concentration-response curve. `Cc1cc(C(N)=O)cc(C)c1C[C@@H](CNC(=O)C[C@@H](c1ccccc1)C1(C(F)(F)F)CC1)N(C)C` [Compound 7, 4-((S)-2-(dimethylamino)-3-((S)-3-phenyl-3-(1-(trifluoromethyl)cyclopropyl)propanamido)propyl)-3,5-dimethylbenzamide]: the results for the concentration for half-maximal inhibition (IC50) in experiment [1] and in experiment [3] (setting [4]) were less than 300 nM and greater than 3000 nM, respectively. For the same compound, the EC50 in experiment [2] was less than 300 nM.

Take `Cc1cc(C(N)=O)cc(C)c1C[C@@H](CNC(=O)C[C@H](c1ccccc1)C1(C(F)(F)F)CC1)N(C)C` [Compound 8, 4-((S)-2-(dimethylamino)-3-((R)-3-phenyl-3-(1-(trifluoromethyl)cyclopropyl)propanamido)propyl)-3,5-dimethylbenzamide]: the IC50 was less than 300 nM in experiment [1] and greater than 3000 nM in experiment [3] (setting [4]). For the same compound, the half-maximal effective concentration (EC50) in experiment [2] is greater than 3000 nM.

As to `Cc1cc(C(N)=O)cc(C)c1C[C@@H](CNC(=O)C[C@@H](c1ccccc1)C(C)C)N(C)C` [Compound 10, 4-((S)-2-(dimethylamino)-3-((R)-4-methyl-3-phenylpentanamido)propyl)-3,5-dimethylbenzamide], the IC50 in experiment [1] and in experiment [3] was less than 300 nM each time. For the same compound, the EC50 in experiment [2] was greater than 3000 nM.

For `Cc1cc(C(N)=O)cc(C)c1C[C@@H](CNC(=O)C[C@@H](c1ccccc1)C1CC1)N(C)C` [Compound 11, 4-((S)-3-((R)-3-cyclopropyl-3-phenylpropanamido)-2-(dimethylamino)propyl)-3,5-dimethylbenzamide], the half-inhibitory concentration (IC50) in experiment [1] and in experiment [3] was less than 300 nM in each case. Moreover, the EC50 in experiment [2] is greater than 3000 nM.

Take `Cc1cc(C(N)=O)cc(C)c1C[C@@H](CNC(=O)C[C@@H](CC(C)C)c1ccccc1)N(C)C` [Compound 12, 4-[(2S)-2-(dimethylamino)-3-[(3R)-5-methyl-3-phenylhexanamido]propyl]-3,5-dimethylbenzamide]: the half-maximal inhibitory concentration (IC50) in experiment [1] and in experiment [3] was less than 300 nM in each case. Further, the EC50 in experiment [2] was greater than 3000 nM.

As to `Cc1ccc([C@@H](CC(=O)NC[C@H](Cc2ccc(C(N)=O)c(F)c2Cl)N(C)C)C2(C(F)(F)F)CC2)cn1` [Compound 20, 3-chloro-4-((S)-2-(dimethylamino)-3-((R)-3-(6-methylpyridin-3-yl)-3-(1-(trifluoromethyl)cyclopropyl)propanamido)propyl)-2-fluorobenzamide], the IC50 in experiment [1] and in experiment [3] (setting [4]) was less than 300 nM in each case. Further, the EC50 in experiment [2] was 300 to 3000 nM.

`Cc1ncc([C@@H](CC(=O)NC[C@H](Cc2ccc(C(N)=O)c(F)c2Cl)N(C)C)C2(C(F)(F)F)CC2)cn1` [Compound 21, 3-chloro-4-[(2S)-2-(dimethylamino)-3-[(3R)-3-(2-methylpyrimidin-5-yl)-3-[1-(trifluoromethyl)cyclopropyl]propanamido]propyl]-2-fluorobenzamide]: the half-inhibitory concentration (IC50) in experiment [1] and in experiment [3] was less than 300 nM throughout. The EC50 in experiment [2] was in the range of 300 to 3000 nM.

`CN(C)[C@H](CNC(=O)C[C@H](c1ccccc1)C1(C(F)(F)F)CC1)Cc1ccc(C(N)=O)cc1Cl` [Compound 39, 3-chloro-4-[(2S)-2-(dimethylamino)-3-[(3R)-3-phenyl-3-[1-(trifluoromethyl)cyclopropyl]propanamido]propyl]benzamide]: the IC50 in experiment [1] and in experiment [3] was less than 300 nM throughout. Besides, the EC50 in experiment [2] is greater than 3000 nM.

On to `Cc1ncc([C@@H](CC(=O)NC[C@H](Cc2ccc(C(N)=O)c(F)c2)N(C)C)C2(C(F)(F)F)CC2)cn1` [Compound 68, 4-((S)-2-(dimethylamino)-3-((R)-3-(2-methylpyrimidin-5-yl)-3-(1-(trifluoromethyl)cyclopropyl)propanamido)propyl)-2-fluorobenzamide], for which the IC50 in experiment [1] and in experiment [3] was less than 300 nM throughout. The concentration giving a half-maximal response (EC50) in experiment [2] was greater than 3000 nM.

In the case of `CN(C)[C@H](CNC(=O)C[C@H](c1ccccc1)C1(C(F)(F)F)CC1)Cc1ccc(C(N)=O)c(F)c1` [Compound 77, 4-((S)-2-(dimethylamino)-3-((R)-3-phenyl-3-(1-(trifluoromethyl)cyclopropyl)propanamido)propyl)-2-fluorobenzamide], the IC50 in experiment [1] and in experiment [3] was less than 300 nM throughout. For the same compound, the EC50 in experiment [2] is greater than 3000 nM.

Consider `CN(C)[C@H](CNC(=O)C[C@H](c1ccc(Cl)c(Cl)c1)C1(C(F)(F)F)CC1)Cc1ccc(C(N)=O)cc1` [Compound 80, 4-((S)-3-((R)-3-(3,4-dichlorophenyl)-3-(1-(trifluoromethyl)cyclopropyl)propanamido)-2-(dimethylamino)propyl)benzamide], for which the IC50 in experiment [1] and in experiment [3] was less than 300 nM in each case. In experiment [2], the EC50 is less than 300 nM.

In the case of `CN(C)[C@H](CNC(=O)C[C@@H](c1ccccc1)C1(C(F)(F)F)CC1)Cc1ccc(C(N)=O)cc1` [Compound 88, 4-[(2S)-2-(dimethylamino)-3-[(3S)-3-phenyl-3-[1-(trifluoromethyl)cyclopropyl]propanamido]propyl]benzamide], the concentration for half-maximal inhibition (IC50) in experiment [1] and in experiment [3] was less than 300 nM in each case. Besides, in experiment [2], the EC50 is less than 300 nM.

On to `CN(C)[C@H](CNC(=O)C[C@H](c1ccccc1)C1(C(F)(F)F)CC1)Cc1ccc(C(N)=O)cc1` [Compound 89, 4-[(2S)-2-(dimethylamino)-3-[(3R)-3-phenyl-3-[1-(trifluoromethyl)cyclopropyl]propanamido]propyl]benzamide], for which the IC50 in experiment [1] and in experiment [3] was less than 300 nM throughout. Besides, the EC50 in experiment [2] was less than 300 nM.

Take `CN(C)[C@H](CNC(=O)C[C@H](CC1CCC1)c1ccccc1)Cc1ccc(C(N)=O)cc1` [Compound 90, 4-[(2S)-3-[(3S)-4-cyclobutyl-3-phenylbutanamido]-2-(dimethylamino)propyl]benzamide]: the IC50 in experiment [1] and in experiment [3] was less than 300 nM throughout. Moreover, the EC50 in experiment [2] is less than 300 nM.

`CC(C)C[C@@H](CC(=O)NC[C@H](Cc1ccc(C(N)=O)cc1)N(C)C)c1ccccc1` [Compound 91, 4-[(2S)-2-(dimethylamino)-3-[(3S)-5-methyl-3-phenylhexanamido]propyl]benzamide]: the IC50 in experiment [1] and in experiment [3] was less than 300 nM in each case. Further, the EC50 in experiment [2] is less than 300 nM.

For the compound `CC(C)C[C@H](CC(=O)NC[C@H](Cc1ccc(C(N)=O)cc1)N(C)C)c1ccccc1` [Compound 96, 4-((S)-2-(dimethylamino)-3-((R)-5-methyl-3-phenylhexanamido)propyl)benzamide], the IC50 in experiment [1] and in experiment [3] was less than 300 nM in each case. Further, in experiment [2], the EC50 is less than 300 nM.

Turning to `CN(C)[C@H](CNC(=O)C[C@@H](c1ccccc1)C1CC1)Cc1ccc(C(N)=O)cc1` [Compound 97, 4-((S)-3-((R)-3-cyclopropyl-3-phenylpropanamido)-2-(dimethylamino)propyl)benzamide], the IC50 in experiment [1] and in experiment [3] was less than 300 nM in each case. Further, in experiment [2], the EC50 was less than 300 nM.

Turning to `CNC(=O)c1ccc(C[C@@H](CNC(=O)C[C@H](c2cc(F)cc(F)c2)C2(C(F)(F)F)CC2)N(C)C)c(C)c1` [Compound 136, 4-((S)-3-((R)-3-(3,5-difluorophenyl)-3-(1-(trifluoromethyl)cyclopropyl)propanamido)-2-(dimethylamino)propyl)-N,3-dimethylbenzamide], the IC50 in experiment [1] and in experiment [3] was less than 300 nM throughout. In addition, the EC50 in experiment [2] lay in the range of 300 to 3000 nM.

Consider `CNC(=O)c1ccc(C[C@@H](CNC(=O)C[C@H](c2ccc(Cl)cc2)C2(C(F)(F)F)CC2)N(C)C)c(C)c1` [Compound 142, 4-((S)-3-((R)-3-(4-chlorophenyl)-3-(1-(trifluoromethyl)cyclopropyl)propanamido)-2-(dimethylamino)propyl)-N,3-dimethylbenzamide], for which the concentration for half-maximal inhibition (IC50) in experiment [1] and in experiment [3] was less than 300 nM in each case. In addition, the EC50 in experiment [2] was greater than 3000 nM.

As for `CNC(=O)c1ccc(C[C@@H](CNC(=O)C[C@H](c2ccccc2)C2(C(F)(F)F)CC2)N(C)C)c(C)c1` [Compound 143, 4-((S)-2-(dimethylamino)-3-((R)-3-phenyl-3-(1-(trifluoromethyl)cyclopropyl)propanamido)propyl)-N,3-dimethylbenzamide], the IC50 in experiment [1] and in experiment [3] was less than 300 nM in each case. Moreover, the EC50 in experiment [2] was greater than 3000 nM.

For `CN(C)[C@H](CNC(=O)C[C@@H](c1ccccc1)C1CC1)Cc1ccc2[nH]ncc2c1` [Compound 226, (3R)-3-cyclopropyl-N-[(2S)-2-(dimethylamino)-3-(1H-indazol-5-yl)propyl]-3-phenylpropanamide], the IC50 in experiment [1] and in experiment [3] (setting [4]) was less than 300 nM each time. Further, the EC50 in experiment [2] lay within 300 to 3000 nM.

Turning to `CN(C)[C@H](CNC(=O)C[C@H](c1ccccc1)C1CC1)Cc1ccc2[nH]ncc2c1` [Compound 227, (3S)-3-cyclopropyl-N-[(2S)-2-(dimethylamino)-3-(1H-indazol-5-yl)propyl]-3-phenylpropanamide], the IC50 was 300 to 3000 nM in experiment [1] and less than 300 nM in experiment [3] (setting [4]). The EC50 in experiment [2] is 300 to 3000 nM.

`Cc1cc(O)cc(C)c1C[C@@H](CNC(=O)C[C@H](c1ccccc1)C1CC1)N(C)C` [Compound 251, (S)-3-cyclopropyl-N-((S)-2-(dimethylamino)-3-(4-hydroxy-2,6-dimethylphenyl)propyl)-3-phenylpropanamide]: the IC50 in experiment [1] and in experiment [3] (setting [4]) was less than 300 nM each time. Besides, the EC50 in experiment [2] is greater than 3000 nM.

On to `Cc1cc(O)cc(C)c1C[C@@H](CNC(=O)CC(c1cccnc1)C1(C(F)(F)F)CC1)N(C)C` (stereo partly drawn) [Compound 316, N-((S)-2-(dimethylamino)-3-(4-hydroxy-2,6-dimethylphenyl)propyl)-3-(pyridin-3-yl)-3-(1-(trifluoromethyl)cyclopropyl)propanamide], for which the IC50 in experiment [1] and in experiment [3] was less than 300 nM each time.
